Values of other authors in paper PMC12451523 (RSC Advances, 2025).

Target: fungal tyrosinase
Conditions: read-out: IC50 (μM) ± S.E., standard inhibitors, ref [50]

| Compound | IC50 |
| --- | --- |
| O=C1O[C@H]([C@@H](O)CO)C(O)=C1O [Ascorbic acid] | 11.5 ± 1 µM |
| O=c1cc(CO)occ1O [Kojic acid] | 30.3 ± 1 µM |
